# Measurements published in publication PMC8113459, “Selective inhibition of cullin 3 neddylation through covalent targeting DCN1 protects mice from acetaminophen-induced liver toxicity” (Nature Communications, 2021).
# Values joined by “and” are separate entries in the source; they are usually repeats but may differ in a detail not shown here. Equal entries are not always repeated.
# Columns and labels:
# HO-1 protein = assay: Western blot, HO-1 protein in THLE2 cells; assay type: cell-based, human; settings: THLE2, Fig. 6b
# Protocol: Western blotting was performed as described previously. Treated cells were lysed by RIPA buffer supplemented with protease inhibitor. The expression level of indicated proteins was examined by immunoblotting analysis and GAPDH was used as the loading control. Antibodies were purchased commercially: cullin 1 (sc-17775, 1:500 dilution) and cullin 2 (sc-166506, 1:500 dilution) from Santa Cruz Biotech (Santa Cruz, CA); cullin 4A (PA5-14542, 1:1000 dilution), cullin 4B (PA5-50647, 1:1000 dilution), and DCN3 (DCUN1D3, PA5-44000, 1:1000 dilution) from Thermo Fisher Scientific (Wayne, MI); cullin 3 (2759, 1:1000), NRF2 (12721, 1:1000 dilution), HO-1 (70081, 1:1000 dilution), and Bim (2819, 1:1000 dilution) from Cell Signaling Technology (Boston, MA); DCN1 (GWB-E3D700, 1:1000 dilution) from GenWay Biotech (San Diego, CA); and cullin 5 (A302-173A, 1:500 dilution) from Bethyl Labs (Montgomery, TX). Results are representative of two independent experiments.
# [1] = system: APAP-induced liver injury; assay: APAP-induced liver injury: alanine aminotransferase (ALT) level; assay type: in vivo, mouse; settings: for reduction of the elevated ALT level induced by 400 mg/kg of APAP: 24 h time point
# Protocol: The in vivo studies were performed under animal protocols (PRO00007499) and (PRO00006638) approved by the Institutional Animal Care & Use Committee of the University of Michigan, in accordance with the recommendations in the Guide for the Care and Use of Laboratory Animals of the National Institutes of Health. C57BL/6 WT mice (~8 weeks, male, normal chow) were purchased from the Jackson Laboratory and randomly divided into eight groups (8–9 mice per group) treated (IP) as follows: phosphate-buffered saline vehicle once per day for 3 days (G1), APAP alone a single dose at 400 mg/kg on day 1 (G2), DI-1859 alone 25 mg/kg once per day for 3 days (G3), DI-1859 alone 50 mg/kg once per day for 3 days (G4), pretreatment (1 day before the APAP administration) with DI-1859 at 25 mg/kg once per day for 3 days followed with APAP at 400 mg/kg on day (G5), pretreatment (1 day before the APAP administration) with DI-1859 at 50 mg/kg once per day for 3 days followed with APAP at 400 mg/kg on day (G6), APAP a single dose at 400 mg/kg (3 h before the first DI-1859 administration) followed with DI-1859 at 25 mg/Kg once per day for 3 days (G7), and APAP a single dose at 400 mg/kg (3 h before the first DI-1859 administration) followed with DI-1859 at 50 mg/Kg once per day for 3 days (G8).
# To induce acute liver injury, animals received PBS or APAP (400 mg/kg, sigma, A7085) through I.P. injection at 12 p.m. and were sacrificed 48 h afterward. To examine the protective effect of DI-1859 (groups 5 and 6), animals were I.P. injected with compound for 3 consecutive days (9 a.m. on each day, starting 1 day before APAP administration). To examine the restorative effect of DI-1859 (groups 7 and 8), animals were I.P. injected with compound 3 h after APAP administration followed by two additional treatments (9 a.m. on the next 2 days). Body weight and blood glucose level measurement, along with blood sample collection, were performed at 12 p.m. on each day.
# Blood glucose levels were determined using glucometers (Bayer Corp., Pittsburgh, PA). Plasma ALT activity was measured using an ALT reagent set (Pointe Scientific Inc., Canton, MI).
# DCN1 = DCN1 (Homo sapiens, UniProt Q96GG9); assay: High-resolution LC-tandem mass spectrometry of tryptic peptides; settings: for Modifications (DI-548 adduct on DCN1 tryptic peptide): B2 Sequest HT (DI-548) sample, confidence High, not found in Apo sample
# Sequence of DCN1 (Q96GG9 58-259 limits assumed): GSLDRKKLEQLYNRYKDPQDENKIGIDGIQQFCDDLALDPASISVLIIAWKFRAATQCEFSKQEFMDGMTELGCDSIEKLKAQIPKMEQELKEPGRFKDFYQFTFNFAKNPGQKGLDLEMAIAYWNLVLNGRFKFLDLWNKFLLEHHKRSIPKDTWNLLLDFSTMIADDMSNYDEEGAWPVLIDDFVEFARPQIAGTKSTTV
# Protocol: Equal amounts of proteins (10 μg) were denatured in 8 M urea. Cysteines were reduced with 10 mM DTT at 45 °C for 30 min and alkylated using 50 mM chloroacetamide (RT, 30 min). Upon dilution of urea to <1.2 M, digestion with 250 ng of sequencing grade, modified trypsin (Promega) was carried out overnight at 37 °C. Reaction was terminated by acidification with trifluoroacetic acid (0.1% v/v) and peptides were purified using SepPak C18 cartridge following the manufacturer’s protocol (Waters Corp). An aliquot of the resulting peptides (~2 µg) was resolved on a nanocapillary reverse phase column (Acclaim PepMap C18, 2 μm, 50 cm, Thermo Fisher Scientific) using 0.1% formic acid/acetonitrile gradient at 300 nL/min and directly introduced in to Q Exactive HF mass spectrometer (Thermo Fisher Scientific, San Jose, CA). MS1 scans were acquired at 60 K resolution (AGC target = 3e^6, max IT = 50 ms). Data-dependent high-energy C-trap dissociation MS/MS spectra were acquired for the 20 most abundant ions (Top20) following each MS1 scan (15 K resolution; AGC target = 1e^5; relative CE ~ 28%). Proteins were identified by searching the data against restricted database containing DCN1 protein sequence and common contaminants using Sequest HT (Proteome Discoverer v2.4, Thermo Fisher Scientific). Search parameters included MS1 mass tolerance of 10 ppm and fragment tolerance of 0.02 Da; two missed cleavages were allowed; carbamidomethylation (+57.02146 Da) and DI-1548 adduct (+510.2665 Da) of cysteine, and oxidation of methionine, deamidation of asparagine and glutamine were considered as potential modifications. False discovery rate (FDR) was determined using target decoy validator and proteins/peptides with an FDR of ≤1% were retained for further analysis. The DI-1548 modified peptide PSMs were manually verified.
compound,measurement,setting,value
C=C(CN(C)C)C(=O)NC[C@@H](NC(=O)[C@H](Cc1nc2ccc(C(C)C)cc2s1)NC(=O)CC)C1CCCCC1 [DI-1859],HO-1 protein level,HO-1 protein,dose dependently upregulates
same,ALT(IU/L) mean,"[1]; G3 PBS + Low, Time 0 hr",26.4101 IU/L
same,ALT(IU/L) mean,"[1]; G3 PBS + Low, Time 24 hr",28.0781 IU/L
same,ALT(IU/L) mean,"[1]; G4 PBS + High, Time 0 hr",28.6341 IU/L
same,ALT(IU/L) mean,"[1]; G4 PBS + High, Time 24 hr",23.9081 IU/L
same,ALT(IU/L) mean,"[1]; G5 APAP + Low-pre, Time 0 hr",32.3717 IU/L
same,ALT(IU/L) mean,"[1]; G5 APAP + Low-pre, Time 24 hr",2856 IU/L
same,ALT(IU/L) mean,"[1]; G5 APAP + Low-pre, Time 48 hr",171.99 IU/L
same,ALT(IU/L) mean,"[1]; G6 APAP + H-pre, Time 0 hr",30.6419 IU/L
same,ALT(IU/L) mean,"[1]; G6 APAP + H-pre, Time 24 hr",292.828 IU/L
same,ALT(IU/L) mean,"[1]; G6 APAP + H-pre, Time 48 hr",49.2459 IU/L
same,ALT(IU/L) mean,"[1]; G7 APAP + Low-post, Time 0 hr",30.889 IU/L
same,ALT(IU/L) mean,"[1]; G7 APAP + Low-post, Time 24 hr",1341.82 IU/L
same,ALT(IU/L) mean,"[1]; G7 APAP + Low-post, Time 48 hr",134.182 IU/L
same,ALT(IU/L) mean,"[1]; G8 APAP + High-post, Time 0 hr",29.1592 IU/L
same,ALT(IU/L) mean,"[1]; G8 APAP + High-post, Time 24 hr",1771.79 IU/L
same,ALT(IU/L) mean,"[1]; G8 APAP + High-post, Time 48 hr",227.59 IU/L
same,reduction of the elevated ALT level induced by 400 mg/kg of APAP,"[1]; prevention setting (G5), 25 mg/kg",20%
same,reduction of the elevated ALT level induced by 400 mg/kg of APAP,"[1]; prevention setting (G6), 50 mg/kg",90% and > 90%
same,reduction of the APAP-induced ALT elevations,"[1]; treatment setting (G7), 25 mg/kg after APAP",~ 50% and 50%
same,reduction of the APAP-induced ALT elevations,"[1]; treatment setting (G8), 50 mg/kg after APAP",~ 50% and 50%
C=C(CN1CCOCC1)C(=O)NC[C@@H](NC(=O)[C@H](Cc1nc2ccc(C(C)C)cc2s1)NC(=O)CC)C1CCCCC1 [DI-1548],Modifications (DI-548 adduct on DCN1 tryptic peptide),"DCN1; peptide [R].AATQCEFSK.[Q], DCN_1 [77-85]",1xDI-548_Haibin [C5]
same,Modifications (DI-548 adduct on DCN1 tryptic peptide),"DCN1; peptide [R].AATQCEFSKQEFMDGMTELGCDSIEK.[L], DCN_1 [77-102], 1xCarbamidomethyl [C21] and 1xDeamidated [Q4]",1xCarbamidomethyl [C21]; 1xDeamidated [Q4]; 1xDI-548_Haibin [C5]
same,Modifications (DI-548 adduct on DCN1 tryptic peptide),"DCN1; peptide [R].AATQCEFSKQEFMDGMTELGCDSIEK.[L], DCN_1 [77-102], 1xCarbamidomethyl [C21]",1xCarbamidomethyl [C21]; 1xDI-548_Haibin [C5]
same,residue of DCN1 modified,DCN1; tryptic digested peptides,forms covalent bond with Cys115
